One assay concerns the target T1, IDH2 R172K (Homo sapiens, UniProt P48735, R172K).
T1 sequence (P48735 40-452 R172K): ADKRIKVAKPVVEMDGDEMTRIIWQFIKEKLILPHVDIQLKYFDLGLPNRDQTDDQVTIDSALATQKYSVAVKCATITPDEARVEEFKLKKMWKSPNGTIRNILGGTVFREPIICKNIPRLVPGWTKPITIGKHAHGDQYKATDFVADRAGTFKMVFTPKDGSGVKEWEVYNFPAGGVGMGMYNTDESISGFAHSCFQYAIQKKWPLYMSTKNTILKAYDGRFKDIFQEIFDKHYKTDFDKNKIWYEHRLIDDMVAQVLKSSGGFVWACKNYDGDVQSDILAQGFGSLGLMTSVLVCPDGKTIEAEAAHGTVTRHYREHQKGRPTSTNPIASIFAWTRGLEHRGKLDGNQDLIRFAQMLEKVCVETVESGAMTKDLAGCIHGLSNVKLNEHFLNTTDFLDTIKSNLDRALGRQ
The assay can be described thus: IDH2 R172K enzymatic assay (NADPH cofactor depletion, diaphorase/resazurin readout). In kind it is biochemical. To be noted: read-out: Enz R172K. As to the method: Compounds are assayed for IDH2 R172K inhibitory activity through a cofactor depletion assay. […] The reaction is terminated by the addition of a second enzyme, diaphorase, and a corresponding substrate, resazurin. Diaphorase reduces resazurin to the highly fluorescent resorufin with the concomitant oxidation of NADPH to NADP, both halting the IDH2 reaction by depleting the available cofactor pool and facilitating quantitation of the amount of cofactor remaining after a specific time period through quantitative production of an easily detected fluorophore.
The test compound is then incubated for one hour at room temperature with the enzyme; before starting the IDH2 reaction with the addition of 10 μl of substrate mix containing 50 μM NADPH and 6.3 mM α-KG in the buffer described above. After a further one hour of incubation at room temperature, the reaction is halted and the remaining NADPH measured through conversion of resazurin to resorufin by the addition of 25 μl Stop Mix (36 μg/ml diaphorase enzyme and 60 μM resazurin; in buffer).
On the technique in general: The colour change of resazurin is a common sign of viable cells or microbes.

The target of another assay is T2, IDH2 R140Q (Homo sapiens, UniProt P48735, R140Q).
T2 sequence (P48735 40-452 R140Q): T1 sequence (P48735 40-452 R172K) with R101Q, K133R
Briefly: IDH2 R140Q enzymatic assay (cofactor depletion, similar format). In kind it is biochemical. As to conditions: read-out: Enz R140Q.

Assay [1] deals with U87MG pLVX-IDH2 R140Q-neo cells. The assay can be described thus: U87MG pLVX-IDH2 R140Q-neo cell based assay, 2-HG in media by LC-MS at 48 hours. To be noted: Homo sapiens, U-87 MG. The procedure, abridged: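 2-HG secreted into the medium was measured by LC-MS after 48 h of compound treatment (0.2% DMSO final) of U87MG pLVX-IDH2 R140Q-neo cells in DMEM/10% FBS. The same wells were assayed at 72 h by CellTiter-Glo luminescence for effects on growth.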

Results on 25 compounds are retold here after patent US9512107B2, “Therapeutically active compositions and their methods of use” (Agios Pharmaceuticals, Inc., priority 2012, dated 2016).

Residue numbers refer to the chain shown, from its start. Where only a bound is given, the exact number is not on record here.

With `CC(C)Nc1nc(Nc2cc(F)cc(F)c2)nc(-c2cccc(Cl)n2)n1` [Compound 340, 6-(6-chloropyridin-2-yl)-N^2-(3,5-difluorophenyl)-N^4-isopropyl-1,3,5-triazine-2,4-diamine], the IC50 (on IDH2 R172K; on IDH2 R140Q; in assay [1]) was under 100 nM throughout.

`CC(C)Nc1nc(Nc2ccc(C#N)cc2)nc(-c2ccccc2)n1` [Compound 141]: the IC50 was 100 to 1000 nM at IDH2 R172K, under 100 nM at IDH2 R140Q and 100 to 1000 nM in assay [1].

For `CC(C)Nc1nc(Nc2cc(F)cc(F)c2)nc(-c2nc(F)ccc2F)n1` [Compound 460, N-(3,5-Difluoro-phenyl)-6-(3,6-difluoro-pyridin-2-yl)-N′-isopropyl-[1,3,5]triazine-2,4-diamine], the IC50 (at IDH2 R172K; on IDH2 R140Q; in assay [1]) was under 100 nM each time.

As to `CC#Cc1cccc(-c2nc(Nc3cccc(F)c3)nc(NC(C)C)n2)n1` [Compound 467, N-(3-Fluoro-phenyl)-N′-isopropyl-6-(6-prop-1-ynyl-pyridin-2-yl)-[1,3,5]triazine-2,4-diamine], the IC50 (at IDH2 R172K; on IDH2 R140Q; in assay [1]) was 100 to 1000 nM in each case.

In the case of `COC(=O)N1CCC(Nc2nc(Nc3ccnc(C(F)(F)F)c3)nc(-c3cccc(C(F)(F)F)n3)n2)CC1` [Compound 577, 4-[4-(6-Trifluoromethyl-pyridin-2-yl)-6-(2-trifluoromethyl-pyridin-4-ylamino)-[1,3,5]triazin-2-ylamino]-piperidine-1-carboxylic acid methyl ester], the IC50 at IDH2 R172K was 100 to 1000 nM; on IDH2 R140Q, 1000 to 10000 nM; in assay [1], under 100 nM.

For the compound `CC(C)(C)COC(=O)Nc1nc(Nc2ccccc2)nc(-c2ccccc2)n1` [Compound 208, Neopentyl 4-phenyl-6-(phenylamino)-1,3,5-triazin-2-ylcarbamate], the IC50 is 100 to 1000 nM at IDH2 R172K, under 100 nM at IDH2 R140Q and 100 to 1000 nM in assay [1].

On to `CC(C)Nc1nc(Nc2cc(F)cc(S(C)(=O)=O)c2)nc(-c2cccc(C(F)(F)F)n2)n1` [Compound 570, N2-(3-fluoro-5-(methylsulfonyl)phenyl)-N4-isopropyl-6-(6-(trifluoromethyl)pyridin-2-yl)-1,3,5-triazine-2,4-diamine], for which the IC50 on IDH2 R172K is under 100 nM; at IDH2 R140Q, 100 to 1000 nM; in assay [1] it was under 100 nM.

For the compound `OC1CC1Nc1nc(Nc2ccnc(C(F)(F)F)c2)nc(-c2cccc(C(F)(F)F)n2)n1` (centres unmarked) [Compound 568, 2-[4-(6-Trifluoromethyl-pyridin-2-yl)-6-(2-trifluoromethyl-pyridin-4-ylamino)-[1,3,5]triazin-2-ylamino]-cyclopropanol], the IC50 is 100 to 1000 nM on IDH2 R172K, 100 to 1000 nM on IDH2 R140Q and under 100 nM in assay [1].

Consider `CC1(Nc2nc(Nc3ccncc3)nc(-c3ccccc3)n2)CC1` [Compound 218, N^2-(1-methylcyclopropyl)-6-phenyl-N^4-(pyridin-4-yl)-1,3,5-triazine-2,4-diamine], for which the IC50 on IDH2 R172K is 1000 to 10000 nM; at IDH2 R140Q it was under 100 nM; in assay [1], 100 to 1000 nM.

With `Cc1cc(Nc2nc(NC(C)C)nc(-c3cccc(C(F)(F)F)n3)n2)cnn1` [Compound 501, N-Isopropyl-N′-(6-methyl-pyridazin-4-yl)-6-(6-trifluoromethyl-pyridin-2-yl)-[1,3,5]triazine-2,4-diamine], the IC50 on IDH2 R172K fell in the range of 1000 to 10000 nM; on IDH2 R140Q it was 100 to 1000 nM; in assay [1] it was 100 to 1000 nM.

Consider `CC(C)Nc1nc(Nc2ccccc2)nc(-c2ccc(F)cc2F)n1` [Compound 118], for which the IC50 at IDH2 R172K is 100 to 1000 nM; at IDH2 R140Q it was under 100 nM; in assay [1] it was 100 to 1000 nM.

Take `COc1cc(Cl)cc(-c2nc(Nc3ccnc(C(F)(F)F)c3)nc(NC(C)C)n2)c1` [Compound 655, 6-(3-chloro-5-methoxyphenyl)-N2-isopropyl-N4-(2-(trifluoromethyl)pyridin-4-yl)-1,3,5-triazine-2,4-diamine]: the IC50 (on IDH2 R172K; on IDH2 R140Q; in assay [1]) was 100 to 1000 nM in each case.

As for `CC(C)Nc1nc(Nc2ccnc(C(F)(F)F)c2)nc(-c2cccc(C(C)O)c2)n1` (centres unmarked) [Compound 663, 1-(3-(4-(isopropylamino)-6-((2-(trifluoromethyl)pyridin-4-yl)amino)-1,3,5-triazin-2-yl)phenyl)ethanol], the IC50 (at IDH2 R172K; in assay [1]) was under 100 nM each time.

With `COC(C)(C)CNc1nc(Nc2ccncc2)nc(-c2ccccc2)n1` [Compound 252, N^2-(2-methoxy-2-methylpropyl)-6-phenyl-N^4-(pyridin-4-yl)-1,3,5-triazine-2,4-diamine], the IC50 at IDH2 R172K was in the range of 1000 to 10000 nM; on IDH2 R140Q, 100 to 1000 nM.

For `CC(C)Nc1nc(Nc2ccnc(C(F)(F)F)c2)nc(-c2cc(Cl)cc(C(F)(F)F)c2)n1` [Compound 644, 6-(3-Chloro-5-trifluoromethyl-phenyl)-N-isopropyl-N′-(2-trifluoromethyl-pyridin-4-yl)-[1,3,5]triazine-2,4-diamine], the IC50 lay within 1000 to 10000 nM at IDH2 R172K and 100 to 1000 nM on IDH2 R140Q.

As for `Cc1cccc(C)c1-c1nc(Nc2ccccc2)nc(NC(C)C)n1` [Compound 117], the IC50 at IDH2 R172K was 1000 to 10000 nM; on IDH2 R140Q, 100 to 1000 nM.

Consider `COc1cc(F)cc(-c2nc(Nc3ccnc(C(F)(F)F)c3)nc(NC(C)C)n2)c1` [Compound 662, 6-(3-fluoro-5-methoxyphenyl)-N2-isopropyl-N4-(2-(trifluoromethyl)pyridin-4-yl)-1,3,5-triazine-2,4-diamine], for which the IC50 on IDH2 R172K lay in the range of 1000 to 10000 nM; in assay [1], 100 to 1000 nM.

Consider `CC(C)Nc1nc(NC2CCOCC2)nc(-c2ccccc2)n1` [Compound 137], for which the IC50 at IDH2 R172K is 1000 to 10000 nM; on IDH2 R140Q, 100 to 1000 nM.

With `CC(C)Nc1nc(Nc2ccc(O)cc2)nc(-c2ccccc2)n1` [Compound 133], the values for the IC50 at IDH2 R172K and at IDH2 R140Q were over 10000 nM and 100 to 1000 nM, respectively.

As for `COc1ccc(-c2nc(Nc3ccccc3)nc(NC(C)C)n2)cc1` [Compound 116], the IC50 fell in the range of 1000 to 10000 nM on IDH2 R172K and 100 to 1000 nM on IDH2 R140Q.

As to `c1ccc(-c2nc(Nc3ccncc3)nc(NC3CC3)n2)cc1` [Compound 217, N^2-cyclopropyl-6-phenyl-N^4-(pyridin-4-yl)-1,3,5-triazine-2,4-diamine], the values for the IC50 at IDH2 R172K and at IDH2 R140Q were 1000 to 10000 nM and under 100 nM, respectively.

For `COc1cc(Cl)cc(-c2nc(Nc3cc(F)cc(F)c3)nc(NC(C)C)n2)n1` [Compound 486, 6-(4-chloro-6-methoxypyridin-2-yl)-N^2-(3,5-difluorophenyl)-N^4-isopropyl-1,3,5-triazine-2,4-diamine], the IC50 (on IDH2 R172K; in assay [1]) was 100 to 1000 nM throughout.

In the case of `O=C(Nc1nc(Nc2ccccc2)nc(-c2ccccc2)n1)C1CCCO1` (centres unmarked) [Compound 243, N-(4-phenyl-6-(phenylamino)-1,3,5-triazin-2-yl)tetrahydrofuran-2-carboxamide], the IC50 is 1000 to 10000 nM on IDH2 R172K and 100 to 1000 nM at IDH2 R140Q.

On to `CC(C)Nc1nc(Nc2ccccc2C#N)nc(-c2ccccc2)n1` [Compound 165], for which the IC50 at IDH2 R172K was 1000 to 10000 nM; on IDH2 R140Q, 100 to 1000 nM.

`CC(C)Nc1nc(Nc2ccnc(C(F)(F)F)c2)nc(-c2cc(O)cc(CO)c2)n1` [Compound 665, 3-(hydroxymethyl)-5-(4-(isopropylamino)-6-((2-(trifluoromethyl)pyridin-4-yl)amino)-1,3,5-triazin-2-yl)phenol]: the IC50 (on IDH2 R172K; in assay [1]) was under 100 nM each time.
